Laboratory results taken from patent US11180462B2, “Microbiocidal oxadiazole derivatives” (SYNGENTA PARTICIPATIONS AG, priority 2015, dated 2021).

Tests used:
Phakopsora Pachyrhizi = assay: Fungicidal activity against Phakopsora pachyrhizi / soybean / leaf disc preventative (Asian soybean rust); format: in vivo; details: foliar, 200 ppm in the applied formulation, soybean leaf disks, compared to untreated control leaf disks, read-out: disease control
Method in brief: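 Preventative soybean leaf-disc test: discs on water agar sprayed with diluted formulated compound, inoculated one day later with spores on the lower surface. Held 24–36 h dark at 20°C, 75% rh, then 12 h light/day; percent disease control versus untreated discs scored 12–14 days after application.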

[1] = tested on: Puccinia recondita f. Sp. Tritici; assay: Fungicidal activity against Puccinia recondita f. sp. tritici / wheat / leaf disc curative (brown rust); format: in vivo; details: foliar, 24 h, 200 ppm in the applied formulation, wheat leaf segments, curative (applied 1 day after inoculation), compared to untreated control leaf disks, read-out: disease control
Method in brief: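 Curative leaf-segment test: compound diluted in water applied 1 day after spore inoculation of cv. Kanzler wheat segments on agar. Conditions 19° C, 75% RH, 12 h/12 h light cycle. Read-out: % disease control relative to untreated check, 6 to 8 days after application.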

[2] = tested on: Puccinia recondita f. Sp. Tritici; assay: Fungicidal activity against Puccinia recondita f. sp. tritici / wheat / leaf disc preventative (brown rust); format: in vivo; details: foliar, 200 ppm in the applied formulation, wheat leaf segments, preventative, compared to untreated control leaf disks, read-out: disease control
Method in brief: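 Compound application precedes infection: segments of wheat cv. Kanzler, sprayed at 200 ppm, are inoculated with a spore suspension after 1 day. Incubation is at 19° C. with 75% relative humidity and 12 h light/12 h darkness, and control versus untreated leaves is rated 7 to 9 days post-application.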

[3] = tested on: Glomerella lagenarium (Colletotrichum lagenarium); assay: Fungicidal activity against Glomerella lagenarium (Colletotrichum lagenarium) liquid culture / cucumber / preventative (anthracnose); format: cell-based; details: Colletotrichum orbiculare; 20 ppm in the applied formulation; liquid culture (PDB), growth inhibition measured photometrically after 3 to 4 days; compared to untreated control; read-out: disease control
Method in brief: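 Photometric read-out of fungal growth after 2–7 days, expressed as percent antifungal activity versus untreated check. Cryo-stored conidia in PDB; compound at 20 ppm; dark, 24 °C, 96% RH.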

O=C(c1ccccc1)N(Cc1ccc(-c2noc(C(F)(F)F)n2)cc1)C1CC1 [Compound 1.150, N-cyclopropyl-N-[[4-[5-(trifluoromethyl)-1,2,4-oxadiazol-3-yl]phenyl]methyl]-benzamide]
≥ 80%: pest or weed control at 200 ppm (Phakopsora Pachyrhizi) | pest or weed control at 200 ppm [1] | pest or weed control at 200 ppm [2] | inhibition of growth at 20 ppm [3]

CCON(Cc1ccc(-c2noc(C(F)(F)F)n2)cc1)C(=O)N(C)C [Compound 3.28, 1-ethoxy-3,3-dimethyl-1-[[4-[5-(trifluoromethyl)-1,2,4-oxadiazol-3-yl]phenyl]methyl]urea]
≥ 80%: pest or weed control at 200 ppm (Phakopsora Pachyrhizi) | pest or weed control at 200 ppm [1] | pest or weed control at 200 ppm [2] | inhibition of growth at 20 ppm [3]

CN(Cc1ccc(-c2noc(C(F)(F)F)n2)cc1)C(=O)C1CCCC1 [Compound 1.515, N-methyl-N-[[4-[5-(trifluoromethyl)-1,2,4-oxadiazol-3-yl]phenyl]methyl]-cyclopentane-carboxamide]
≥ 80%: pest or weed control at 200 ppm (Phakopsora Pachyrhizi) | pest or weed control at 200 ppm [1] | pest or weed control at 200 ppm [2] | inhibition of growth at 20 ppm [3]

CCC(C)N(Cc1ccc(-c2noc(C(F)(F)F)n2)cc1)C(=O)C1CC1F (stereo not shown) [Compound 1.401, 2-fluoro-N-sec-butyl-N-[[4-[5-(trifluoromethyl)-1,2,4-oxadiazol-3-yl]phenyl]methyl]-cyclopropane-carboxamide]
≥ 80%: pest or weed control at 200 ppm (Phakopsora Pachyrhizi) | pest or weed control at 200 ppm [1] | pest or weed control at 200 ppm [2] | inhibition of growth at 20 ppm [3]

COCC(=O)N(C)Cc1ccc(-c2noc(C(F)(F)F)n2)cc1 [Compound 1.519, 2-methoxy-N-methyl-N-[[4-[5-(trifluoromethyl)-1,2,4-oxadiazol-3-yl]phenyl]methyl]-acetamide]
≥ 80%: pest or weed control at 200 ppm (Phakopsora Pachyrhizi) | pest or weed control at 200 ppm [1] | pest or weed control at 200 ppm [2] | inhibition of growth at 20 ppm [3]

CCC(=O)N(Cc1ccc(-c2noc(C(F)(F)F)n2)cc1)Cc1ccco1 [Compound 1.457, N-(2-furylmethyl)-N-[[4-[5-(trifluoromethyl)-1,2,4-oxadiazol-3-yl]phenyl]methyl]-propanamide]
≥ 80%: pest or weed control at 200 ppm (Phakopsora Pachyrhizi) | pest or weed control at 200 ppm [1] | pest or weed control at 200 ppm [2] | inhibition of growth at 20 ppm [3]

COC(C)C(=O)N(Cc1ccc(-c2noc(C(F)(F)F)n2)cc1)Cc1ccco1 (stereo not shown) [Compound 1.472, N-(2-furylmethyl)-2-methoxy-N-[[4-[5-(trifluoromethyl)-1,2,4-oxadiazol-3-yl]phenyl]methyl]-propanamide]
≥ 80%: pest or weed control at 200 ppm (Phakopsora Pachyrhizi) | pest or weed control at 200 ppm [1] | pest or weed control at 200 ppm [2] | inhibition of growth at 20 ppm [3]

CON(Cc1ccc(-c2noc(C(F)(F)F)n2)cc1)C(=O)C1CC1(F)F (stereo not shown) [Compound 1.15, 2,2-difluoro-N-methoxy-N-[[4-[5-(trifluoromethyl)-1,2,4-oxadiazol-3-yl]phenyl]methyl]-cyclopropane-carboxamide]
≥ 80%: pest or weed control at 200 ppm (Phakopsora Pachyrhizi) | pest or weed control at 200 ppm [1] | pest or weed control at 200 ppm [2] | inhibition of growth at 20 ppm [3]

CC1(C(=O)N(Cc2ccc(-c3noc(C(F)(F)F)n3)cc2)CC2CC2)COC1 [Compound 1.235, N-(cyclopropylmethyl)-3-methyl-N-[[4-[5-(trifluoromethyl)-1,2,4-oxadiazol-3-yl]phenyl]methyl]-oxetane-3-carboxamide]
≥ 80%: pest or weed control at 200 ppm (Phakopsora Pachyrhizi) | pest or weed control at 200 ppm [1] | pest or weed control at 200 ppm [2] | inhibition of growth at 20 ppm [3]

COCCC(=O)N(CCOC)Cc1ccc(-c2noc(C(F)(F)F)n2)cc1 [Compound 1.335, 3-methoxy-N-(2-methoxyethyl)-N-[[4-[5-(trifluoromethyl)-1,2,4-oxadiazol-3-yl]phenyl]methyl]-propanamide]
≥ 80%: pest or weed control at 200 ppm (Phakopsora Pachyrhizi) | pest or weed control at 200 ppm [1] | pest or weed control at 200 ppm [2] | inhibition of growth at 20 ppm [3]
